pIC50: −log10 of the molar value. Several values for one entry are separate records, joined by “and”; a condition that tells them apart may be missing. Equal values may be shown once.
Experiments:
[1] = design: species or system rats; conditions: rat, in vivo, po, 75 mg/kg
Experimental: The terminal elimination phase T1/2 was 27.3 hours.

DNMT1 = DNMT1 (Homo sapiens, UniProt P26358); assay: DNMT1 activity assay (Poly(dI-dC) substrate, ^3H-SAM); assay type: biochemical; conditions: read-out: IC50, DNMT-1 activity
Sequence of DNMT1 (P26358 whole entry): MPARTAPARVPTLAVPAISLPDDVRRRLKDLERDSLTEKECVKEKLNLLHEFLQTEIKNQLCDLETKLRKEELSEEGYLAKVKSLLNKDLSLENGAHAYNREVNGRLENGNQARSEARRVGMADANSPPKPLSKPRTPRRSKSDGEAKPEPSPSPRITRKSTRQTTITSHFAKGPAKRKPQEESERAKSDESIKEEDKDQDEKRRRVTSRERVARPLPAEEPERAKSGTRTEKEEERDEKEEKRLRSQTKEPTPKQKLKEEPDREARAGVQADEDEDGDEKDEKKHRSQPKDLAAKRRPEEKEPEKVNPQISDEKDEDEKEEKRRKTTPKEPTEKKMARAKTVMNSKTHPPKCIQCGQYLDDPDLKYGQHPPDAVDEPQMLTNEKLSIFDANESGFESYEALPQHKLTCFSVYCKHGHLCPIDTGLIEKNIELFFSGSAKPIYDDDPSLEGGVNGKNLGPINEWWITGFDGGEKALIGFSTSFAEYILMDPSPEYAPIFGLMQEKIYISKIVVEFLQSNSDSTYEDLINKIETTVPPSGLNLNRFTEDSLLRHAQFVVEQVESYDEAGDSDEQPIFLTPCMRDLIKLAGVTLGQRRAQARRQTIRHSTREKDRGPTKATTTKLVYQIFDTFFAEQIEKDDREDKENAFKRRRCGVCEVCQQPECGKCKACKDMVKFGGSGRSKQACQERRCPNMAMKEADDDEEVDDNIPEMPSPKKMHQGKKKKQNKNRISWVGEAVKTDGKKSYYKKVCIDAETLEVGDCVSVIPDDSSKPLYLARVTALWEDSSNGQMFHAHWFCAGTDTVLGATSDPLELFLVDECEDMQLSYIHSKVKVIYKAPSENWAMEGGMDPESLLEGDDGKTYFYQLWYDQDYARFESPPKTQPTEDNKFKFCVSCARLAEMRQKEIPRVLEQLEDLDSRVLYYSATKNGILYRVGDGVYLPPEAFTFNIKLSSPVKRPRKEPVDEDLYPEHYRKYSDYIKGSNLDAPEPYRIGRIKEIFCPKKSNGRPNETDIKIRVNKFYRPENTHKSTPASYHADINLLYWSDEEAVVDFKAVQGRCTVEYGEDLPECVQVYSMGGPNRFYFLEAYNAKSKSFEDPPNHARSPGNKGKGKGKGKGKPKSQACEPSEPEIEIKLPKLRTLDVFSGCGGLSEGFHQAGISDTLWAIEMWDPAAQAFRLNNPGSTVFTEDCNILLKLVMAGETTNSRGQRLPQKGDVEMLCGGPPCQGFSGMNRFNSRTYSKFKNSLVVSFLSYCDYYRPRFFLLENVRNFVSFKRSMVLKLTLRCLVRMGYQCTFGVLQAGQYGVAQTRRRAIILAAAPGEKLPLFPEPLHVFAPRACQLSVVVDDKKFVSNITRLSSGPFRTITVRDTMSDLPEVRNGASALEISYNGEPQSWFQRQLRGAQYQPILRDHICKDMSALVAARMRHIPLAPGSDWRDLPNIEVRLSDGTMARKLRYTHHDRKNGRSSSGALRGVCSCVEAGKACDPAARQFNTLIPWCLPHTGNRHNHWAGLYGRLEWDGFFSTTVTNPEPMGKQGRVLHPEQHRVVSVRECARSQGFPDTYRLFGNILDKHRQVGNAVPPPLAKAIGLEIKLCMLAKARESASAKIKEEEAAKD
Experimental: (§2) For the DNMT1 activity assay, the substrate solution, 0.001 mg/ml Poly(dI-dC):Poly(dI-dC) in 50 mM Tris-HCl, pH 7.5, 50 mM NaCl, 5 mM EDTA, 5 mM DTT, 1 mM PMSF, 5% glycerol, 0.01% Brij35, 1% DMSO was used. For the DNMT3a/3b activity assay, 0.0075 mg/ml Lambda DNA in 50 mM Tris-HCl, pH 7.5, 50 mM NaCl, 5 mM EDTA, 5 mM DTT, 1 mM PMSF, 5% glycerol, 1% DMSO, was used. The indicated DNMT1, DNMT3a, or DNMT3b was added to the appropriate substrate solution and gently mixed. […] The mixtures were first incubated for 15 min, then ^3H-SAM was added to the reaction mixture to initiate the reaction, and the mixture was incubated for 60 min at 30° C. Following incubation, the reaction mixture was finally transferred to filter-paper for detection of radioactivity counts.

DNMT3a = DNMT3a (Homo sapiens, UniProt Q9Y6K1); assay: DNMT3a activity assay (Lambda DNA substrate, ^3H-SAM); assay type: biochemical; conditions: read-out: IC50, DNMT3a activity
Sequence of DNMT3a (Q9Y6K1 whole entry, looked up): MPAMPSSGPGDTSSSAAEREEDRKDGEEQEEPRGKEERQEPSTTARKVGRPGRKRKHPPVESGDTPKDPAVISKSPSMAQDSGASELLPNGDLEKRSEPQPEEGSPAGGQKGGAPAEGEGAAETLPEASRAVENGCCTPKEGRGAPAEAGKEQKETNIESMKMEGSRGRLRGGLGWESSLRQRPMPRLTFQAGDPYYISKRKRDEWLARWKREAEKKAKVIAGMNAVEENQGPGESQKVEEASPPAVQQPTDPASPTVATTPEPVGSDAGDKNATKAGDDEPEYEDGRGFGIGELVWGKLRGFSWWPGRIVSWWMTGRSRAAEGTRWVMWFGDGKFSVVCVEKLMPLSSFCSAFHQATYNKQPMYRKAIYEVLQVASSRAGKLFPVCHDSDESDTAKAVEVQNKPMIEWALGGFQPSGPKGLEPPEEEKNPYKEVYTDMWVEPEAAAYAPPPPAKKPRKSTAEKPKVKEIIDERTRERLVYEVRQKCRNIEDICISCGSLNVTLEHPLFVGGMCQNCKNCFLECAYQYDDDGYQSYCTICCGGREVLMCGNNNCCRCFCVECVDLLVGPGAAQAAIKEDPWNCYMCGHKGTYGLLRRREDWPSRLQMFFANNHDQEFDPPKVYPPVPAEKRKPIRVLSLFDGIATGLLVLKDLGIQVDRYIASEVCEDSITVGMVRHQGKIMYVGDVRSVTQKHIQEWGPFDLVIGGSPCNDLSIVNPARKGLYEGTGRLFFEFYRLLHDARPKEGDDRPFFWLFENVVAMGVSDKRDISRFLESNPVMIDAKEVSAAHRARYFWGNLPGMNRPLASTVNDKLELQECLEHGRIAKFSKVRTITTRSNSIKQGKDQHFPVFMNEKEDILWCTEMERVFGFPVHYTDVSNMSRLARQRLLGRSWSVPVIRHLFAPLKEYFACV
Experimental: as §2

[2] = Tissue distribution by quantitative whole body autoradiography, intravenous dose; assay type: in vivo, Sprague Dawley rats; conditions: intravenous 10 mg/kg
Experimental: (§1) Nine male Sprague Dawley rats (Group 1) were designated for the pharmacokinetic phase, 3 male Sprague Dawley rats (Group 2) for the excretion mass balance phase, and 7 male Sprague Dawley rats (Group 3) and 9 male Long Evans rats (Group 4) for the tissue distribution phase. All animals received a single intravenous dose of [^14C]-25HC3S at 10 mg/kg and a target radioactivity of 225 μCi/kg. Blood samples were collected from all Group 1 animals at approximately 0.083, 0.25, 0.5, 1, 2, 4, 8, 12, 24, 48, and 72 hours post-dose. Urine and feces were collected from all Group 2 animals periodically through 168 hours post-dose. […] Following blood collection, animals were euthanized by CO2 inhalation and carcasses frozen in a dry ice/hexane bath for processing by quantitative whole body autoradiography. Whole blood, plasma, urine, feces, cage rinse, and cage wash were analyzed for total radioactivity by liquid scintillation counting.

[3] = system: ^5mCpG in promoter regions, Huh-7 cells; assay: Whole genome bisulfite sequencing (WGBS); assay type: cell-based, human
Experimental: Each sample, 2 μg, was sent to EpigenDx, Inc. (Hopkinton, Mass.) for analysis of global methylation bisulfite sequencing. The same samples, 6 μg, were sent to Novogene Co., Ltd (Tianjin, China) for analysis of whole genome bisulfite sequencing (WGBS). Total RNA was isolated using the Promega SV total RNA isolation system (Madison, Wis.) with DNase treatment. Each sample, 2 μg, was used for the first-strand cDNA synthesis as recommended by the manufacturer (Invitrogen, Carlsbad, Calif.). Real-time RT-PCR was performed using SYBR Green as the indicator on ABI 7500 Fast Real-Time PCR System (Applied Biosystems, Foster City, Calif.). Amplifications of β-actin or GAPDH were used as internal controls. Relative messenger RNA (mRNA) expression was quantified with the comparative cycle threshold (Ct) method using the primer set shown in Table 1.1 and was expressed as 2^−ΔΔCt.
Each sample, 5.2 μg of genomic DNA spiked with 26 ng lambda DNA, was fragmented by sonication to 200-300 bp with Covaris S220, followed by end repair and adenylation. Cytosine-methylated barcodes were ligated to sonicated DNA per the manufacturer's instructions. These DNA fragments were treated twice with bisulfite using EZ DNA Methylation-Gold™ Kit (Zymo Research) before the resulting single-strand DNA fragments were PCR amplified using KAPA HiFi Hot Start Uracil and Ready Mix (2×). Library concentration was quantified by Qubit® 2.0 Flurometer (Life Technologies, CA, USA) and quantitative PCR, and the insert size was assayed on an Agilent Bioanalyzer 2100 system.
The library preparations were sequenced on an Illumina Hiseq 2500/4000 or Novaseq platform and 125 bp/150 bp paired-end reads were generated. Image analysis and base calling were performed with Illumina CASAVA pipeline. Trimmomatic (Trimmomatic-0.36) software was used for quality control. Bismark software (version 0.16.3; Krueger F, 2011) was used to perform alignments of bisulfite-treated reads to a reference genome (−×700—dovetail). DSS software (23) was used to identify differentially methylated regions (DMRs). KOBAS software was used to test the statistical enrichment of DMR related genes in the Kyoto Encyclopedia of Genes and Genomes (KEGG) pathways.
Each sample (6 μg) was used for analysis of the whole genome bisulfite sequencing (WGBS).

[4] = system: CpG sites in promoter regions of LINE-1 element, Huh-7 cells; assay: LINE-1 global methylation assay; assay type: cell-based, human; conditions: Huh-7 cells in HG media, 25HC3S for 4 hours
Experimental: Each sample, 2 μg, was sent to […], Inc. (Hopkinton, Mass.) for analysis of global methylation bisulfite sequencing. The same samples, 6 μg, were sent to Novogene Co., Ltd (Tianjin, China) for analysis of whole genome bisulfite sequencing (WGBS). Total RNA was isolated using the Promega SV total RNA isolation system (Madison, Wis.) with DNase treatment. […] Real-time RT-PCR was performed using SYBR Green as the indicator on ABI 7500 Fast Real-Time PCR System (Applied Biosystems, Foster City, Calif.). Amplifications of β-actin or GAPDH were used as internal controls. Relative messenger RNA (mRNA) expression was quantified with the comparative cycle threshold (Ct) method using the primer set shown in Table 1.1 and was expressed as 2^-ΔΔCt. […] PCR reaction and product purification were performed as per the manufacturer's protocol (GE Healthcare Life Sciences). The PCR products, 10 μl, were sequenced by Pyrosequencing on the PSQ96 HS System following the manufacturer's instructions (Pyrosequencing, Qiagen). The methylation status of each CpG site was determined individually as an artificial C/T SNP using QCpG software (Pyrosequencing, Qiagen). The methylation level at each CpG site was calculated as the percentage of the methylated alleles divided by the sum of all methylated and unmethylated alleles. The mean methylation level was calculated using methylation levels of all measured CpG sites within the targeted region of each gene. Each experiment included non-CpG cytosines as internal controls to detect incomplete bisulfite conversion of the input DNA. In addition, a series of unmethylated and methylated DNA were included as controls in each PCR assay. Furthermore, PCR bias testing was performed by mixing unmethylated control DNA with in vitro methylated DNA at different ratios (0%, 5%, 10%, 25%, 50%, 75%, and 100%), followed by bisulfite modification, PCR, and Pyro-sequencing analysis.

[5] = Metabolite profiling of plasma, urine, feces, intravenous dose; assay type: in vivo, Sprague Dawley rats; conditions: intravenous 10 mg/kg
Experimental: as §1

C[C@H](CCCC(C)(C)O)[C@H]1CC[C@H]2[C@@H]3CC=C4C[C@@H](OS(=O)(=O)O)CC[C@]4(C)[C@H]3CC[C@]12C [25HC3S, 5-Cholesten-3β, 25-diol 3-sulfate]
terminal elimination phase T1/2 ([1]; Sprague Dawley): 27.3 h | plasma AUClast [1]: 96,400 h·ng equiv./g | plasma Cmax [1]: 3800 ng equiv./g | pIC50 (DNMT1): 5.39 | pIC50 (DNMT3a): 5.52 | AUClast in liver [2]: ≤ 364,000 h ng/g | tissues in which radioactivity was detected [2]: all tissues except the eye (lens) | whole blood AUClast [2]: 25,200 h*ng-equiv./g | T1/2 in plasma ([2]; QWBA phase): 44.3 h | T1/2 in whole blood ([2]; QWBA phase): 52.2 h | genes with demethylated ^5mCpG in promoter regions, Calcium pathway ([3]; of 180 total genes): 19 genes | genes with demethylated ^5mCpG in promoter regions, cAMP pathway ([3]; of 200 total genes): 28 genes | genes with demethylated ^5mCpG in promoter regions, MAPK signaling pathway ([3]; of 257 total genes): 23 genes | number of KEGG pathways enriched in hypomethylated genes ([3]; p<0.05, Huh-7, HG 72 hours, 25 μM 25HC3S 4 hours): 79 KEGG pathways and 75 KEGG pathways | Reduction of methylation (demethylation) at Pos1 of LINE-1 [4]: −5% | Reduction of methylation (demethylation) at Pos3 of LINE-1 [4]: −10% | Reduction of methylation (demethylation) at Pos 4 of LINE-1 [4]: −5.6% | % of dose in feces ([5]; 0 to 48 hours post-dose): 2 % of dose | share of exposure (AUC) to 25HC3S related radioactivity in plasma ([5]; up to 1 hour post-dose): approximately 54%

— patent US20230218639A1, “USE OF OXYGENATED CHOLESTEROL SULFATES FOR TREATING NEUROLOGICAL CONDITIONS, NEURODEGENERATIVE DISEASES, AND ADDICTION” (Durect Corporation, priority 2020, published 2023)
